Where “and” joins values, the source holds several entries; their conditions need not be identical. Equal entries are not always repeated.
Columns and labels:
[1] = test system: TNF-α production by human peripheral blood mononuclear cells; assay: TNF-α production assay in LPS-stimulated PBMC; type: cell-based; conditions: LPS 1 ng/mL, 16-18 h, ELISA
Method: PDE4 enzyme was isolated from U937 human monocytic cells and used for testing inhibition in a cAMP hydrolysis assay as previously described ([Schafer et al. 2010]). For the TNF-α production assay, human peripheral blood mono-nuclear cells (PBMC) were isolated from buffy coat of normal donor blood units (Blood Center of New Jersey, East Orange, NJ) by density centrifugation over Ficoll Hypaque (Pharmacia, Piscataway, NJ). Cells were cultured in RPMI 1640 (Life Technologies, Grand Island, NY) supplemented with 5% AB^+ human serum (Gemini Bio-products, Woodland, CA), 2-mM L-glutamine, 100-U/mL penicillin and 100-μg/mL streptomycin (Life Technologies). PBMC (2×10^5 cells) were plated in 96-well flat-bottom Costar tissue culture plates (Corning, NY) in duplicate. Cells were stimulated with lipopolysaccharides (LPS) (from Salmonella abortus equi; Sigma cat.no. L-1887, St.Louis, MO) at a final concentration of 1 ng/mL in the absence or presence of compounds. The compounds were dissolved in DMSO (Sigma) and subsequent dilutions were done in culture medium immediately before use. The compounds were added to cells 1 h before LPS stimulation. The cells were incubated for 16-18 h at 37°C in 5% CO2, and super-natants were then collected, diluted with culture medium and assayed for TNF-α levels by enzyme-linked immunosorbent assay (ThermoFisher, Rockford, IL). Fifty percent inhibitory concentrations (IC50) for the PDE4 enzymatic and TNF-α assay were calculated by non-linear regression analysis using Prism 5.1 (GraphPad Software). Regression curves were sigmoidal dose response curves with maximum and minimum constrained to 100% and 0%, respectively.

[2] = Metabolite profiling by HPLC radiochromatography in plasma, urine and faeces; type: in vivo, human
Method: Individual plasma samples collected from all subjects at 0.5, 1, 2.5, 8, 24, 36 and 48 h post-dose were analysed for metabolite profiling. A pooled sample (equal volume from 0.5,1,2.5,8 and 24 h) from subject 1 was also used for metabolite profiling. Three volumes of acetonitrile were added to each sample, followed by mixing and centrifu-gation. The supernatant was removed and the pellet was washed twice with acetonitrile. The combined superna-tants were evaporated to dryness under a stream of nitrogen. The residues were re-suspended in acetonitrile: 1% formic acid in water (1:1), assayed for extraction recovery and analysed for metabolite profiling.
For each subject, urine samples were pooled using an equal percentage by volume of the 0-4, 4-8, 8-12 and 12-24-h samples. The 24-48-h urine sample from each subject and a pool of the 0-168-h urine samples from subject 1 were also analysed for metabolite profiling. Samples were mixed and centrifuged prior to the supernatants being transferred to fresh tubes for metabolite profiling analysis.
Faecal homogenates for metabolite profiling were pooled using an equal percentage by weight to generate two pools (0-48 h and 48-96 h) for each subject. An additional pool (0-168 h) was prepared using the samples collected from subject 1. An aliquot (approximately 6 g) of each pool was extracted with three volumes of acetonitrile; samples were mixed and centrifuged. The supernatant was removed and the pellets were extracted twice with an additional 12 mL of acetonitrile each time. The combined supernatants were evaporated to dryness under a stream of nitrogen and the residue was re-suspended in a small volume (approximately 400 μL) of acetonitrile: 1% formic acid in water (1:1). Samples were assayed for extraction recovery prior to metabolite profiling.
HPLC analysis for metabolite profiling was performed using a Shimadzu LC-10ADVP (Shimadzu Corp., Columbia, MD) or a Waters 2695 Alliance Separation Module (Waters Corp., Milford, MA) with the autosampler set to an ambient temperature of approximately 22°C. ASPD-10A VPUV-Vis Detector or a Waters 996 Photodiode array detector set to 254 nm was used to detect UV absorbance. [^14C]Apremilast and metabolites were separated using a Phenomenex Luna C 18(2) column (150 × 4.6 mm, 3 μm; Phenomenex, Torrance, CA) equipped with a RP-18 guard column (15×3.2 mm, 7 μm) or using an ACE 3 C18 column (150 × 4.6 mm, 3 μm; Advanced Chromatography Technologies, Aberdeen, Scotland) equipped with an ACE 3 guard column (10×3mm, 3 μm). The mobile phases used were 0.4% formic acid in water; pH 3.2 with ammonium hydroxide (mobile phase A) and acetonitrile (mobile phase B). The column temperature was 30°C and the flow rate was 0.7mL/min. The linear gradient was delivered as follows: 0-5 min to 100% A; 5-20 min to 85% A; 20-30 min hold at 85% A; 30-50 min to 65% A; 50-60 min to 60% A; 60-70 min to 50% A; 70-75 min to 0% A; hold at 0% A until 80 min; return to initial conditions over 2 min.
Radioactivity profiles for excreta were determined by radiochromatography using liquid chromatography-accurate radioisotope counting stop-flow system (LC-ARC; AIM Research Company, Wilmington, DE). Radioactivity was detected using a β-Ram Radioflow detector (IN/US Systems, Brandon, FL) equipped with a 1300-μL liquid cell. Liquid scintillation cocktail and column eluate were mixed at a ratio of 2.5:1. Radioactive peaks were quantified using LC-ARC data handling software. Plasma radioactivity profiles were determined by collecting the column eluate into 96-well Deepwell LumaPlates at a rate of 0.25 min/fraction. The plates were dried and the radioactivity in each well determined using a PerkinElmer TopCount NXT Microplate Scintillation Counter. HPLC radiochromatograms were reconstructed using LC-ARC data handling software.
Pharmacokinetic data were generated by non-compartmental analysis of plasma or whole blood versus time profiles using WinNonlin (version 4.1, Enterprise Edition). […]

[3] = radiochromatography, single oral 20-mg dose, mean ± SD

## CCOc1cc([C@@H](CS(C)(=O)=O)N2C(=O)c3cccc(NC(C)=O)c3C2=O)ccc1OC [Apremilast, (+)-N-[2-[(lS)-1-(3-ethoxy-4-methoxyphenyl)-2-(methylsulfonyl)ethyl]-1,3-dioxo-2,3-dihydro-lH-isoindol-4-yl]acetamide]
[1]
  IC50: 77 nM
[2]; AUC0-t (unchanged drug or metabolite)/AUC0-48 (TRA) * 100%
  Plasma (% AUC relative to TRA); share of circulating radioactivity: 45% and 44.8%
[2]; based on radiochromatography
  Plasma exposure (AUC) relative to total radioactivity: approximately 40%
[2]; faeces collected up to 96-h post-dose
  % of dose excreted, faeces: 4 % of dose and 4.1 % of dose
[2]; human, plasma, radiochromatography, single oral 20-mg dose, mean ± SD, read-out: Plasma t½ (converted)
  half-life: 426 ± 162 min
[2]; male, human, plasma, radiochromatography, single oral 20-mg dose, median and range
  Tmax: 1.8 h
[2]; plasma radioactivity concentrations and radiochromatography, single oral 20-mg dose, mean ± SD
  Plasma Cmax: 321±134 ngEq/mL
[2]; [3]
  Plasma AUC0-t: 2455±690 ngEq*h/mL
  Plasma AUC0-∞: 2636±705 ngEq*h/mL
[2]; urine collected up to 48-h post-dose
  % of dose excreted, urine: 2.8 % of dose

Reference: PMC3231940, “Disposition, metabolism and mass balance of [^14C]apremilast following oral administration” (Xenobiotica; the Fate of Foreign Compounds in Biological …, 2011)
